# From PubChem BioAssay AID1919008 (Molecular Pharmacology Branch, DTP, NCI, 2023)
# Tested on: DMS-114 complex spheroids with HUVEC/MSC, growth % test/control
# Assay: Anticancer human tumor DMS-114 cell line growth inhibition [AhR];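 note: spheroids exposed to agents for 7 days before readout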;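 for viability, T/C: 100% = DMSO vehicle control wells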
# Conditions: for IC50: curve of first compound; for viability, T/C: stronger effect = lower value
# Source text: Multicellular complex tumor spheroid response to aryl hydrocarbon receptor antagonists in combination with a variety of drugs and investigational agents in selected tumor cell lines
# The current study was undertaken to assess response to aryl hydrocarbon receptor antagonists in combination with standard-of-care drugs and investigational agents in solid tumor complex spheroid models. Complex spheroids include a stromal component modeled by human endothelial cells (HUVEC) and fibroblasts modeled by human mesenchymal stem cells (MSCs). The concentration ranges selected for each drug and investigational agent were based upon clinically achievable concentrations if the clinical Cmax of the agent was known.
# Compounds. The drugs and investigational agents: BAY 2416964 (NSC825713), GNF351 (NSC835774), CH-223191 (NSC835775), CPI-455 (NSC825282), aza-TdCyd (NSC777586), decitabine (NSC127716), belinostat (NSC758774), entinostat (NSC756642), pevonedistat (NSC761192), tazemetostat (NSC777109), talazoparib (NSC765396), olaparib (NSC753686), selinexor (NSC780203), nedisertib (M3814, NSC802822), bortezomib (NSC756655), venetoclax (NSC766270), doxorubicin (NSC123127), elimusertib (BAY189344, NSC800525), ceralasertib (AZD6738, NSC777638), TAK-243 (NSC785004), alisertib (NSC759677), etoposide (NSC141540), topotecan (NSC609699), eribulin (NSC707389), gemcitabine (NSC613327), carboplatin (NSC241240), cisplatin (NSC119875), and SN-38 (NSC673596) were obtained from the National Cancer Institute (NCI) Developmental Therapeutics Program Chemical Repository (32). The FDA-approved anticancer drug set is available from the Developmental Therapeutics Program at https://dtp.cancer.gov/organization/dscb/obtaining/available plates.htm. […] The stock solutions were prepared in dimethyl sulfoxide (DMSO, Sigma-Aldrich, St. Louis, MO, cat. D2650), except for the platinum compounds which were prepared in saline (Quality Biological, Gaithersburg, MD, cat. 114-055-101), at 800-fold the tested concentration and stored at -70 degrees C prior to their use. All drugs and investigational agents were tested over a range starting from a high concentration at or near the clinical Cmax and decreasing in half-log increments. If the clinical Cmax for an agent had not been determined, the highest concentration tested was 10 microM (Table 1).
# Cell Culture. All cells were maintained in an incubator at 37 degrees C and 5% CO2 with 95% humidity. The PDC lines were cultured according to standard operating procedures established by the NCI PDMR (https://pdmr.cancer.gov). Briefly, all PDCs were thawed and cultured in Matrigel-coated flasks prepared with a working solution of 1X Ham's F-12 nutrient mix, without supplementation (Invitrogen, Waltham, MA, cat. 11765054), 100 U/mL penicillin-streptomycin (Invitrogen, cat. 15140122), and 2.5% Matrigel (Corning Inc., Corning, NY, cat. 354248) for the first three passages. All PDCs were cultured in complete DMEM/F-12 media containing advanced DMEM/F-12 (Invitrogen, cat. 12634028), 4.9% defined fetal bovine serum, heat inactivated (HyClone Laboratories Inc., Logan, UT, cat. SH30070.03HI), 389 ng/mL hydrocortisone (Sigma-Aldrich, cat. H4001), 9.7 ng/mL human EGF recombinant protein (Invitrogen, cat. PHG0313), 23.4 microg/mL adenine (Sigma-Aldrich, cat. A2786), 97.3 U/mL penicillin-streptomycin (Invitrogen, cat. 15140122), 1.9 mM L-glutamine (Invitrogen, cat. 25030081), and 9.7 microM Y-27632 dihydrochloride (Tocris Bioscience, Bristol, United Kingdom, cat. 1254). The PDCs were cultured in complete DMEM/F12 media without 10 microM Y-27632 dihydrochloride for at least two passages prior to the screen. The established cell lines NCI-H1341 and […] were cultured in DMEM/F-12, HEPES (Invitrogen, cat. 11330032), 5% defined fetal bovine serum (HyClone Laboratories Inc., cat. SH30070.03), ITS premix universal culture supplement [insulin (5 microg/mL), transferrin (5 microg/mL), and selenious acid (5 ng/mL)] […]
structure (smiles),measurement,setting,value
CCc1c2c(nc3ccc(O)cc13)-c1cc3c(c(=O)n1C2)COC(=O)[C@]3(O)CC + CC(CO)NC(=O)c1cc(-c2ccc(Cl)cc2)nn(-c2cnn(C)c2)c1=O,IC50,second compound 0.1 µM,1.6 nM
same,IC50,second compound 0.316 µM,1.09 nM
same,IC50,second compound 1 µM,< 0.949 nM
same,IC50,second compound 3.16 µM,< 0.949 nM
same,IC50,second compound 10 µM,< 0.949 nM
same,"viability, T/C","second compound 0.1 µM, first compound 0.000949 µM",56.4%
same,"viability, T/C","second compound 0.1 µM, first compound 0.003 µM",42.4%
same,"viability, T/C","second compound 0.1 µM, first compound 0.00949 µM",23.2%
same,"viability, T/C","second compound 0.1 µM, first compound 0.03 µM",17.5%
same,"viability, T/C","second compound 0.1 µM, first compound 0.0949 µM",17.7%
same,"viability, T/C","second compound 0.1 µM, first compound 0.3 µM",16.2%
same,"viability, T/C","second compound 0.316 µM, first compound 0.000949 µM",51.4%
same,"viability, T/C","second compound 0.316 µM, first compound 0.003 µM",40.4%
same,"viability, T/C","second compound 0.316 µM, first compound 0.00949 µM",21.2%
same,"viability, T/C","second compound 0.316 µM, first compound 0.03 µM",15.8%
same,"viability, T/C","second compound 0.316 µM, first compound 0.0949 µM",15.7%
same,"viability, T/C","second compound 0.316 µM, first compound 0.3 µM",15.4%
same,"viability, T/C","second compound 1 µM, first compound 0.000949 µM",49.4%
same,"viability, T/C","second compound 1 µM, first compound 0.003 µM",37.8%
same,"viability, T/C","second compound 1 µM, first compound 0.00949 µM",21%
same,"viability, T/C","second compound 1 µM, first compound 0.03 µM",15.4%
same,"viability, T/C","second compound 1 µM, first compound 0.0949 µM",18.8%
same,"viability, T/C","second compound 1 µM, first compound 0.3 µM",17.6%
same,"viability, T/C","second compound 3.16 µM, first compound 0.000949 µM",47.9%
same,"viability, T/C","second compound 3.16 µM, first compound 0.003 µM",31.5%
same,"viability, T/C","second compound 3.16 µM, first compound 0.00949 µM",20.7%
same,"viability, T/C","second compound 3.16 µM, first compound 0.03 µM",13.9%
same,"viability, T/C","second compound 3.16 µM, first compound 0.0949 µM",15.3%
same,"viability, T/C","second compound 3.16 µM, first compound 0.3 µM",16.6%
same,"viability, T/C","second compound 10 µM, first compound 0.000949 µM",43.5%
same,"viability, T/C","second compound 10 µM, first compound 0.003 µM",35.9%
same,"viability, T/C","second compound 10 µM, first compound 0.00949 µM",22.4%
same,"viability, T/C","second compound 10 µM, first compound 0.03 µM",15.1%
same,"viability, T/C","second compound 10 µM, first compound 0.0949 µM",15.7%
same,"viability, T/C","second compound 10 µM, first compound 0.3 µM",16.6%
O=C(c1cc(Cc2n[nH]c(=O)c3ccccc23)ccc1F)N1CCN(C(=O)C2CC2)CC1 + CC(CO)NC(=O)c1cc(-c2ccc(Cl)cc2)nn(-c2cnn(C)c2)c1=O,IC50,second compound 0.1 µM,> 10000 nM
same,IC50,second compound 0.316 µM,> 10000 nM
same,IC50,second compound 1 µM,> 10000 nM
same,IC50,second compound 3.16 µM,> 10000 nM
same,IC50,second compound 10 µM,> 10000 nM
same,"viability, T/C","second compound 0.1 µM, first compound 0.0316 µM",119%
same,"viability, T/C","second compound 0.1 µM, first compound 0.1 µM",95.6%
same,"viability, T/C","second compound 0.1 µM, first compound 0.316 µM",89.2%
same,"viability, T/C","second compound 0.1 µM, first compound 1 µM",106%
same,"viability, T/C","second compound 0.1 µM, first compound 3.16 µM",94.3%
same,"viability, T/C","second compound 0.1 µM, first compound 10 µM",63.5%
same,"viability, T/C","second compound 0.316 µM, first compound 0.0316 µM",96.7%
same,"viability, T/C","second compound 0.316 µM, first compound 0.1 µM",96.1%
same,"viability, T/C","second compound 0.316 µM, first compound 0.316 µM",95.5%
same,"viability, T/C","second compound 0.316 µM, first compound 1 µM",94.5%
same,"viability, T/C","second compound 0.316 µM, first compound 3.16 µM",90.3%
same,"viability, T/C","second compound 0.316 µM, first compound 10 µM",68.1%
same,"viability, T/C","second compound 1 µM, first compound 0.0316 µM",108%
same,"viability, T/C","second compound 1 µM, first compound 0.1 µM",88.9%
same,"viability, T/C","second compound 1 µM, first compound 0.316 µM",118%
same,"viability, T/C","second compound 1 µM, first compound 1 µM",107%
same,"viability, T/C","second compound 1 µM, first compound 3.16 µM",102%
same,"viability, T/C","second compound 1 µM, first compound 10 µM",61.7%
same,"viability, T/C","second compound 3.16 µM, first compound 0.0316 µM",99.4%
same,"viability, T/C","second compound 3.16 µM, first compound 0.1 µM",105%
same,"viability, T/C","second compound 3.16 µM, first compound 0.316 µM",95.7%
same,"viability, T/C","second compound 3.16 µM, first compound 1 µM",93.3%
same,"viability, T/C","second compound 3.16 µM, first compound 3.16 µM",85.6%
same,"viability, T/C","second compound 3.16 µM, first compound 10 µM",67.3%
same,"viability, T/C","second compound 10 µM, first compound 0.0316 µM",94%
same,"viability, T/C","second compound 10 µM, first compound 0.1 µM",95.9%
same,"viability, T/C","second compound 10 µM, first compound 0.316 µM",87.8%
same,"viability, T/C","second compound 10 µM, first compound 1 µM",86%
same,"viability, T/C","second compound 10 µM, first compound 3.16 µM",86.2%
same,"viability, T/C","second compound 10 µM, first compound 10 µM",53.1%
